From the NIST ThermoML archive (doi:10.1021/je050483s)
± gives the expanded uncertainty stated by the source.

Tests used:
[1] = xn = mol fraction of the nth substance listed; conditions: 101 kPa, Liquid
[2] = 101 kPa, Liquid

C1CCNCC1 [piperidine] + O
speed of sound [m/s], [1]
Conditions | 293 K | 303 K | 313 K | 323 K
x1 = 0.006 | 1506.5 ± 1.8 | 1528.7 ± 1.8 | 1544.8 ± 1.8 | 1555.1 ± 1.8
x1 = 0.011 | 1531.1 ± 1.8 | 1548.7 ± 1.8 | 1560.4 ± 1.8 | 1566.8 ± 1.8
x1 = 0.028 | 1590.1 ± 1.9 | 1588.3 ± 1.9 | 1584.5 ± 1.9 | 1578.3 ± 1.9
x1 = 0.057 | 1596.3 ± 1.9 | 1587.1 ± 1.9 | 1576 ± 1.9 | 1562.7 ± 1.8
x1 = 0.099 | 1593.6 ± 1.9 | 1576.5 ± 1.9 | 1557.5 ± 1.8 | 1536.6 ± 1.8
x1 = 0.18 | 1575.4 ± 1.9 | 1547.9 ± 1.9 | 1519.2 ± 1.8 | 1489.3 ± 1.8
x1 = 0.267 | 1550.2 ± 1.9 | 1517.2 ± 1.9 | 1483.5 ± 1.8 | 1449 ± 1.8
x1 = 0.354 | 1525.1 ± 1.9 | 1489.1 ± 1.9 | 1452.5 ± 1.8 | 1415.4 ± 1.8
x1 = 0.439 | 1499.8 ± 1.9 | 1461.1 ± 1.8 | 1424 ± 1.8 | 1384.9 ± 1.8
x1 = 0.523 | 1477 ± 1.9 | 1438 ± 1.8 | 1398.6 ± 1.8 | 1358.9 ± 1.8
x1 = 0.646 | 1445.3 ± 1.9 | 1405.2 ± 1.8 | 1364.8 ± 1.8 | 1324.2 ± 1.8
x1 = 0.846 | 1406.2 ± 1.9 | 1365.1 ± 1.8 | 1323.6 ± 1.8 | 1282 ± 1.8
x1 = 1 | 1384.4 ± 1.9 | 1342.3 ± 1.8 | 1299.9 ± 1.8 | 1257.4 ± 1.8

C1CCNC1 [pyrrolidine]
[2]
Conditions | speed of sound [m/s]
293 K | 1389.4 ± 1.8
303 K | 1348 ± 1.8
313 K | 1305.8 ± 1.7
323 K | 1263 ± 1.7

O [water] + C1CCNC1
Conditions | speed of sound [m/s]
[1], 313 K, x2 = 0 | 1529 ± 1.5

C1CCNCC1 [piperidine]
[2]
Conditions | speed of sound [m/s]
293 K | 1384.4 ± 1.9
303 K | 1342.3 ± 1.8
313 K | 1299.9 ± 1.8
323 K | 1257.4 ± 1.8

O [water] + C1CCNCC1
Conditions | speed of sound [m/s]
[1], 313 K, x2 = 0 | 1529 ± 1.8

C1CCNC1 [pyrrolidine] + O
speed of sound [m/s], [1]
Conditions | 293 K | 303 K | 313 K | 323 K
x1 = 0.006 | 1501.6 ± 1.5 | 1525.2 ± 1.5 | 1541.5 ± 1.5 | 1552.2 ± 1.5
x1 = 0.01 | 1517.1 ± 1.5 | 1537.1 ± 1.5 | 1551.1 ± 1.5 | 1559.7 ± 1.5
x1 = 0.022 | 1557.9 ± 1.5 | 1569.8 ± 1.5 | 1576.6 ± 1.5 | 1578.7 ± 1.5
x1 = 0.068 | 1650.5 ± 1.6 | 1635.1 ± 1.6 | 1619.3 ± 1.6 | 1602.3 ± 1.6
x1 = 0.116 | 1654.8 ± 1.6 | 1631.8 ± 1.6 | 1608 ± 1.6 | 1583.2 ± 1.6
x1 = 0.208 | 1626.3 ± 1.6 | 1596.4 ± 1.6 | 1565.5 ± 1.6 | 1533.5 ± 1.6
x1 = 0.304 | 1589.8 ± 1.6 | 1555.3 ± 1.6 | 1520 ± 1.6 | 1483.9 ± 1.6
x1 = 0.396 | 1556.7 ± 1.6 | 1519.5 ± 1.6 | 1481.6 ± 1.6 | 1443 ± 1.6
x1 = 0.483 | 1528.8 ± 1.6 | 1489.9 ± 1.6 | 1450.5 ± 1.6 | 1410.5 ± 1.6
x1 = 0.567 | 1500.3 ± 1.7 | 1458.9 ± 1.6 | 1422.2 ± 1.6 | 1377.7 ± 1.6
x1 = 0.686 | 1467.5 ± 1.7 | 1426.8 ± 1.6 | 1385.6 ± 1.6 | 1344 ± 1.6
x1 = 0.868 | 1416.6 ± 1.7 | 1375.5 ± 1.7 | 1333.8 ± 1.7 | 1291.7 ± 1.6
x1 = 1 | 1389.4 ± 1.8 | 1348 ± 1.8 | 1305.8 ± 1.7 | 1263 ± 1.7
